Consider ten compounds from patent publication US5091299A, “An enzyme electrode for use in organic solvents” (priority 1987, dated 1992).

In assay [1] the test system is Polyphenol oxidase (tyrosinase). The experiment in a line: Electrode specificity, response of the enzyme electrode to ten phenols. The conditions noted are these: phenol 100 μM, single electrode, chloroform. It counts as biochemical.
For assay [2] the test system is unchanged. The experiment in a line: Calibration of the polyphenol oxidase enzyme electrode with p-cresol in chloroform. The conditions noted are these: after addition of p-cresol, -275 mV vs SCE.
Assay [3] shares this test system. The experiment in a line: Operational stability of the enzyme electrode, sixteen consecutive p-cresol assays. The conditions noted are these: p-cresol 100 μM.
Assay [4] has the same test system. In words: Storage stability of the enzyme electrode, response to p-cresol. The conditions noted are these: p-cresol 200 μM.
Where [5] appears, read: room temp. (20° C.), stored dry.
Where [6] appears, read: room temp. (20° C.), stored in CHCl3.

Values joined by “and” are separate entries in the source; they are usually repeats but may differ in a detail not shown here. Equal entries are not always repeated.

In the case of `Oc1ccc(Cl)cc1` [4-chlorophenol], the Electrode response in assay [1] is reported as 3.1 μA.
For the compound `Cc1ccc(O)c(O)c1` [4-methylcatechol], the Electrode response in assay [1] was 6.7 μA.
Still for that read-out and setting: the same measure for `Oc1ccccc1O` [catechol]: 8.6 μA; for `Cc1cccc(O)c1` [m-cresol]: 4.7 μA.
In the case of `O=Cc1cccc(O)c1` [m-hydroxy-benzaldehyde], in assay [1], the Electrode response came to 0.0 μA and the “whether the electrode responded” value was “responded to all the phenols tested except”.
As to `Cc1ccccc1O` [o-cresol], in assay [1], the Electrode response is 0.0 μA and the “whether the electrode responded” value is “responded to all the phenols tested except”.
`Nc1ccc(O)cc1` [p-aminophenol] came in with an Electrode response in assay [1] of 2.4 μA.
For the compound `Cc1ccc(O)cc1` [p-cresol], the “time for the current increase to reach a steady value” in assay [2] lay in the range of 3 to 5 min. The same compound showed an Electrode response in assay [1] of 5.6 μA. In assay [3], the “Electrode response after the first three assays” value came out at 4.0 μA. Moreover, in assay [3] (start of series of sixteen assays), the “Electrode response, first assay” value came out at 1.9 μA. Also, the “Electrode response over the next eleven assays” value in assay [3] (started to fall after assay fourteen) is on record as “remained stable”. The Initial response in assay [4] (5° C., stored dry) is 4.3 μA and 3.7 μA; in assay [4] (5° C., stored in CHCl3) it was 4.8 μA and 3.8 μA; in assay [4] (setting [5]) it was 5.2 μA and 4.8 μA; in assay [4] (setting [6]), 4.0 μA and 4.2 μA. Besides, the “Response after 3 days” value was 4.4 μA and 4.5 μA in assay [4] (5° C., stored dry); 8.1 μA and 9.5 μA in assay [4] (5° C., stored in CHCl3); 6.8 μA and 5.4 μA in assay [4] (setting [5]); 7.0 μA and 7.2 μA in assay [4] (setting [6]). Besides, the “Response after 48 days” value in assay [4] (5° C., stored dry) was 4.7 μA and 3.5 μA; in assay [4] (5° C., stored in CHCl3) it was 10.0 μA and 7.6 μA; in assay [4] (setting [5]), 3.6 μA and 2.8 μA; in assay [4] (setting [6]), 5.5 μA and 6.5 μA. Further, in assay [4] (electrodes stored at 5° C.), the decrease in response result is recorded as “no significant decrease”. Besides, the “average loss of activity (of the response)” value in assay [4] (electrodes stored at room temperature, after three days) was 30%.
For the compound `O=Cc1ccc(O)cc1` [p-hydroxy-benzaldehyde], in assay [1], the Electrode response is listed as 0.0 μA and the “whether the electrode responded” value was “responded to all the phenols tested except”.
Consider `Oc1ccccc1` [phenol], for which the Electrode response in assay [1] is 6.4 μA.
